Experimental data: ChEMBL document CHEMBL4385620, “Inhibition of polypeptide N-acetyl-α-galactosaminyltransferases is an underlying mechanism of dietary polyphenols preventing colorectal tumorigenesis” (Bioorg Med Chem, 2019)
The source made the active and inactive calls. The rule behind the calls is not given here.

Tests used:
[1] = target: Polypeptide N-acetylgalactosaminyltransferase 2 (Homo sapiens, UniProt Q10471, W282A); assay: Inhibition of catalytic activity of human recombinant FLAG-tagged ppGalNAcT2 W282A mutant expressed in HEK293 cells using EA2 peptide as substrate by HPLC-based enzyme assay
Chain of Polypeptide N-acetylgalactosaminyltransferase 2 (Homo sapiens, UniProt Q10471, W282A) (Q10471 whole entry W282A): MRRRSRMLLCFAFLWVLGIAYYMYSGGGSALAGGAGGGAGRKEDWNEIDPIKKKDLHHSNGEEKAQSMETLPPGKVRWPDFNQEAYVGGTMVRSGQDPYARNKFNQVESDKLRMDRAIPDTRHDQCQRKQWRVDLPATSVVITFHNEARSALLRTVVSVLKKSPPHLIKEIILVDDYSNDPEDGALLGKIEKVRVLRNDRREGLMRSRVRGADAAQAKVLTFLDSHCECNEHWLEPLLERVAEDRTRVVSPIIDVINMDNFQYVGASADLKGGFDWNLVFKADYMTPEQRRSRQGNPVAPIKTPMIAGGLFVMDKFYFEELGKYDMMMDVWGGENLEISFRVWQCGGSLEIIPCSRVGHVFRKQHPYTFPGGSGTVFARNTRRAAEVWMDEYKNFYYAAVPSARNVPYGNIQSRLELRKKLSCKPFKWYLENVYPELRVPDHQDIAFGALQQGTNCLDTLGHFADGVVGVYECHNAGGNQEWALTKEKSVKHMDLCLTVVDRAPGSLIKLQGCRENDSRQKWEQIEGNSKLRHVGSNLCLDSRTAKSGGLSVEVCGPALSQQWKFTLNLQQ

HCT-116 = assay: Antimigratory activity in human HCT116 cells at 40 uM incubated for 48 hrs by crystal violet staining based method; type: functional, cell-based
HT-29 [2] = assay: Effect on ppGalNAcT15 expression level in human HT-29 cells at 40 uM incubated for 48 hrs by Q-PCR analysis; type: ADME, cell-based; settings: ht-29, 48 h
HT-29 [3] = assay: Effect on ppGalNAcT2 expression level in human HT-29 cells at 40 uM incubated for 48 hrs by Western blot analysis; type: ADME, cell-based; settings: ht-29, 48 h
[4] = target: T1, Polypeptide N-acetylgalactosaminyltransferase 2 (Homo sapiens, UniProt Q10471); assay: Inhibition of ppGalNAcT2 in human HT-29 cells assessed as reduction in O-GalNAc glycans by measuring PNA lectin signal on cell surface at 40 uM incubated for 48 hrs by DAPI staining based immunofluorescence method
T1 sequence (Q10471 whole entry): as the sequence (Q10471 whole entry W282A) above, with A282W counted along it

HT-29 [5] = assay: Effect on ppGalNAcT16 expression level in human HT-29 cells at 40 uM incubated for 48 hrs by Q-PCR analysis; type: ADME, cell-based; settings: ht-29, 48 h
[6] = target: T2, Polypeptide N-acetylgalactosaminyltransferase 10 (Homo sapiens, UniProt Q86SR1); assay: Inhibition of catalytic activity of ppGalNAcT10 (unknown origin) using EA2 peptide as substrate incubated for 30 mins by HPLC-based enzyme assay
T2 sequence (Q86SR1 whole entry): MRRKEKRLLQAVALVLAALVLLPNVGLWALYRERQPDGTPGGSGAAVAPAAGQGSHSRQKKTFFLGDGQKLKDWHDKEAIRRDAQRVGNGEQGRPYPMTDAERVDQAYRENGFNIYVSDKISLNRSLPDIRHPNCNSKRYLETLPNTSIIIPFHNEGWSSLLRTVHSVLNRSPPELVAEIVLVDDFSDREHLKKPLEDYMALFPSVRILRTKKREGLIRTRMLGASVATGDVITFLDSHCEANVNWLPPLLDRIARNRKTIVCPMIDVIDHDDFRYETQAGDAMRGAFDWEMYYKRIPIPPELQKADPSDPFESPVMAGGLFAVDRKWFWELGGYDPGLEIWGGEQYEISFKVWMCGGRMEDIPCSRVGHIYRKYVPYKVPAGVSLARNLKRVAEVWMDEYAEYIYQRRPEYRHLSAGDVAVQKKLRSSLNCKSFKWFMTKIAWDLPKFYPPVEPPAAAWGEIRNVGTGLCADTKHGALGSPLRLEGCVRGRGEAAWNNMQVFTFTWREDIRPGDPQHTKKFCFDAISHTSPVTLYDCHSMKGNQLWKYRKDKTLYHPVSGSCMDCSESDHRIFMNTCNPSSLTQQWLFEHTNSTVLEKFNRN

[7] = target: T1, Polypeptide N-acetylgalactosaminyltransferase 2; assay: Binding affinity of human recombinant FLAG-tagged ppGalNAcT2 expressed in HEK293 cells assessed as association rate by SPR analysis
[8] = target: T1, Polypeptide N-acetylgalactosaminyltransferase 2; assay: Inhibition of ppGalNAcT2 in human HT-29 cells assessed as reduction in O-GalNAc glycans by measuring VVA lectin expression at 20 to 60 uM incubated for 48 hrs by Western blot analysis; type: cell-based
HT-29 [9] = assay: Effect on ppGalNAcT10 expression level in human HT-29 cells at 40 uM incubated for 48 hrs by Q-PCR analysis; type: ADME, cell-based; settings: ht-29, 48 h
[10] = target: T3, Polypeptide N-acetylgalactosaminyltransferase 13 (Homo sapiens, UniProt Q8IUC8); assay: Inhibition of catalytic activity of ppGalNAcT13 (unknown origin) using EA2 peptide as substrate incubated for 30 mins by HPLC-based enzyme assay
T3 sequence (Q8IUC8 whole entry): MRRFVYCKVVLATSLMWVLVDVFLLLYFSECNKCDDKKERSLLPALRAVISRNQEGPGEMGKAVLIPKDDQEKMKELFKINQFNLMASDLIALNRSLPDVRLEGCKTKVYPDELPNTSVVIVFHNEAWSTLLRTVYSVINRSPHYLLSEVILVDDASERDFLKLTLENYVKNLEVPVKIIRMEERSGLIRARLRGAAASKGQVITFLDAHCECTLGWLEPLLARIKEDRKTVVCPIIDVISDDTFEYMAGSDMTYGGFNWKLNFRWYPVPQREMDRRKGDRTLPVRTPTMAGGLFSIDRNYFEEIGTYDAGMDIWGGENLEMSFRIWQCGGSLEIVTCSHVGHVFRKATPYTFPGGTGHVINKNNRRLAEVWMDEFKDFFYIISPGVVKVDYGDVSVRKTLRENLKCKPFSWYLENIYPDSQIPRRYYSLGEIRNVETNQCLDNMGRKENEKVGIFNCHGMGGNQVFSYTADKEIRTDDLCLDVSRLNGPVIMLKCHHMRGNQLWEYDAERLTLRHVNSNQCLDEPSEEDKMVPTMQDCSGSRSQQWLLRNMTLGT

HT-29 [11] = assay: Cytotoxicity against human HT-29 cells at 40 uM incubated for 48 hrs by CCK-8 assay; type: cell-based; settings: ht-29, 48 h
[12] = target: T1, Polypeptide N-acetylgalactosaminyltransferase 2; assay: Inhibition of catalytic activity of human recombinant FLAG-tagged ppGalNAcT2 using Muc2 peptide as substrate incubated for 30 mins by HPLC-based enzyme assay
HT-29 [13] = assay: Reduction in PDPN protein expression in human HT-29 cells at 40 uM for 48 hrs by Western blot analysis; type: functional, cell-based
[14] = target: Polypeptide N-acetylgalactosaminyltransferase 14 (Homo sapiens, UniProt Q96FL9); assay: Inhibition of catalytic activity of ppGalNAcT14 (unknown origin) using EA2 peptide as substrate incubated for 30 mins by HPLC-based enzyme assay
Chain of Polypeptide N-acetylgalactosaminyltransferase 14 (Q96FL9 whole entry): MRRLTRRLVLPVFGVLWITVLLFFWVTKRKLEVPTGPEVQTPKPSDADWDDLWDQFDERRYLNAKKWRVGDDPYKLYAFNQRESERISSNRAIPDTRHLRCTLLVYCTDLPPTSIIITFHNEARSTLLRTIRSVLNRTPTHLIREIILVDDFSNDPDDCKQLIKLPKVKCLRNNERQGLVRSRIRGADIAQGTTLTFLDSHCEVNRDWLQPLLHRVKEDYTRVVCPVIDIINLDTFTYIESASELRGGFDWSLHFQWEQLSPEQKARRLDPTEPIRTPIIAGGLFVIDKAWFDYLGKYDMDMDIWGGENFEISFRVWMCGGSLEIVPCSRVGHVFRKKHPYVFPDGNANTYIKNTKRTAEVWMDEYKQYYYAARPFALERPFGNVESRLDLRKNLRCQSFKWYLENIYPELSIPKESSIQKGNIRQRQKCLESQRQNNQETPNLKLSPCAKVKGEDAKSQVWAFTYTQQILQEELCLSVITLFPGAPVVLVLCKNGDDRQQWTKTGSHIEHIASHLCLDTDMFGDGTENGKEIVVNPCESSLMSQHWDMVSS

HT-29 [15] = assay: Effect on ppGalNAcT5 expression level in human HT-29 cells at 40 uM incubated for 48 hrs by Q-PCR analysis; type: ADME, cell-based; settings: ht-29, 48 h
SW480 = assay: Cytotoxicity against human SW480 cells at 40 uM incubated for 48 hrs by CCK-8 assay; type: cell-based; settings: sw480, 48 h
HT-29 [16] = assay: Effect on PDPN expression level in human HT-29 cells at 40 uM incubated for 48 hrs by Q-PCR analysis; type: ADME, cell-based; settings: ht-29, 48 h
RKO = assay: Antimigratory activity in human RKO cells at 40 uM incubated for 48 hrs by crystal violet staining based method; type: functional, cell-based
Cricetulus griseus = species: Cricetulus griseus; assay: Inhibition of ppGalNAcT2 in Chinese hamster ldlD cells assessed as reduction in O-GalNAc glycosylation by measuring metabolic labelled-GalNAz signal at 40 uM incubated for 48 hrs by click chemistry assay; type: cell-based
HT-29 [17] = assay: Effect on ppGalNAcT4 expression level in human HT-29 cells at 40 uM incubated for 48 hrs by Q-PCR analysis; type: ADME, cell-based; settings: ht-29, 48 h
HT-29 [18] = assay: Effect on ppGalNAcT1 expression level in human HT-29 cells at 40 uM incubated for 48 hrs by Q-PCR analysis; type: ADME, cell-based; settings: ht-29, 48 h

**Q.** What does the source list for O=c1oc2c(O)c(O)ccc2c2cc(O)c(O)cc12?
**A.** IC50 [1]: 3120 nM; Activity (HCT-116): Active; Activity (HT-29 [2]): Non-Toxic; Activity (HT-29 [3]): Non-Toxic; inhibition [4]: Active; Activity (HT-29 [5]): Non-Toxic; IC50 [6]: 330 nM; kon [7]: 3532 M⁻¹ s⁻¹; inhibition [8]: Active; Activity (HT-29 [9]): Non-Toxic; IC50 [10]: 13800 nM; Activity (HT-29 [11]): Non-Toxic; IC50 [12]: 1140 nM; Activity (HT-29 [13]): Active; IC50 [14]: 460 nM; Activity (HT-29 [15]): Non-Toxic; Activity (SW480): Non-Toxic; Activity (HT-29 [16]): Non-Toxic; Activity (RKO): Active; inhibition (Cricetulus griseus): Active; Activity (HT-29 [17]): Non-Toxic; Activity (HT-29 [18]): Non-Toxic
